Laboratory results from patent publication US5912259A, “Method for treating and preventing neurodegenerative disorders by administering a thiazolidinone” (Warner-Lambert Company, priority 1998, dated 1999).

Key:
cortical neurons = test: Hypoxia/hypoglycemia-induced death of cortical neurons (LDH); type: cell-based, fetal Sprague-Dawley rat
From the text: Cerebral ischemia can be modeled in vitro by lowering oxygen and glucose in the media of cortical neurons. For this study, cortical neurons were isolated from fetal Sprague-Dawley rat brains on Day E18. Cortical hemispheres were sectioned, dissociated, and triturated in Hank's Balanced Salt Solution (HBSS) containing 0.1% trypsin. Cell concentration was adjusted to 620,000 cells/mL by the addition of Dulbecoo's Modified Eagles Medium (DME) and Ham's Nutrient mixture F-12 (F12) 1:1 supplemented with heat-inactivated 10% horse serum and 6% fetal calf serum. A 100 μL aliquot of cell suspension was pipetted into each individual well of a 96-well polyethylenimine-coated culture plate. After 4 days in an incubator at 37° C. in an atmosphere of 8% CO2,100 μL medium was drawn off from each well and replaced with 100 μL of DME/F12 with 10% horse serum to which 30 μg/mL 5-fluoro-2-deoxyuridine and 70 μg/mL uridine were added to prevent further division of the glial cells. Cultures were read every 2 to 3 days thereafter by half volume (100 μL) replacement with DME/F12 (10% horse serum).
Cells were exposed to an hypoxic/hypoglycemic environment (91% N2 /[…] /1% O2, 1 mM glucose, 37° C.) for varying times in 50 μL HBSS. Cultures were then returned to the normoxic incubator (21% O2 /8% CO2,25 mM glucose) and quantitative assessment of cell death made 24 hours later by measurement of the intracellular enzyme lactate dehydrogenase (LDH). Cells were exposed for 1 hour to the thiazolidinone or other drugs prior to the induction of hypoxia/hypoglycemia.

[1] = Toxicology studies in dogs; type: in vivo, dog
Procedure: (§1) As noted above, the thiazolidinone is additionally well-suited to treating elderly patients because of its long duration of action and its substantial lack of undesirable side effects. Toxicologic properties of the thiazolidinone were evaluated in single-dose oral and intravenous (IV) studies in mice and rats and multidose oral studies in rats and dogs. The thiazolidinone was tested in dogs and monkeys in escalating-dose oral toxicity to determine the most sensitive nonrodent species. […] The initial 13-week dog study was repeated to evaluate the reproducibility of the perivascular effects. Dose range-finding studies were performed in pregnant rats and rabbits, and genotoxic potential was assessed in vitro and in vivo. […] Based on exposure at the no-effect dose in definitive studies, the rat appears to be the most sensitive species followed by the dog and the monkey, albeit with minor differences in exposure between the species.

[2] = Toxicology studies in rats; type: in vivo, rat
Procedure: as §1

[3] = General pharmacokinetic and tolerability properties
[4] = tested on: canine leptomeningeal smooth muscle cells; test: Amyloid β-peptide-induced cytotoxicity in canine leptomeningeal smooth muscle cells; type: cell-based, dog
From the text: Canine smooth muscle cells were isolated from freshly obtained old dog meninges. […] Old dogs have an angiopathy resembling the human condition. Smooth muscle cells are the site of cerebral vessel myopathy occurring in the Dutch form of Alzheimer's disease. The compromise of these cells ultimately leads to a cerebrovascular accident and the death of some humans.
Cells from the meninges were dissociated and kept in culture in 10% fetal calf serum and Dulbecco's minimal essential media with antibiotics for about 1 week on tissue culture plates before use in biochemical studies or transferal to uncoated microscope slides for morphological studies. These smooth muscle cells represent brain blood vessel cells and they can be passaged several times. For inducing cytotoxicity, the cells were treated, in serum-free media, with 10 to 20 μM of amyloid β-peptide that was 42 amino acids long. This peptide corresponds to the human β-peptide sequence. The peptide was dissolved in water immediately before use. This small amount of protein is believed to approximate the concentration of protein observed in postmortem samples in the brains of people who died with Alzheimer's dementia.
Percentages were determined by counting normal and apoptotic nuclei in three fields with five independent measures in a fluorescence microscope.

[5] = rats, definitive 13-week studies

## CC(C)(C)c1cc(/C=C2\SC(N)=NC2=O)cc(C(C)(C)C)c1O [CI-1004, (Z)-5-[[3,5-bis(1,1-dimethylethyl)-4-hydroxyphenyl]methylene]-2-imino-4-thiazolidinone methanesulfonate]
Cortical neurons; 1 μM
  duration of hypoxia/hypoglycemia before loss of viability: no effect
Cortical neurons; 10 μM
  duration of hypoxia/hypoglycemia before loss of viability: significantly increased the duration of hypoxia/hypoglycemia before the cells lost viability
Cortical neurons; 10 μM, 4 hours of exposure, control approximately 50% killed
  neuronal death after hypoxia/hypoglycemia: no neuronal death
[1]
  hepatic enzyme induction: hepatic enzyme induction which was not associated with overt organ toxicity
[1]; definitive 13-week studies
  gastrointestinal effects: gastrointestinal effects
[1]; initial 13-week study
  perivascular mononuclear infiltrates in brain: perivascular mononuclear infiltrates in brain were observed
[2]; female rats, 10 mg/kg
  renal effects: Renal effects were seen
[2]; male rats, 10 mg/kg
  toxic effects: No effects were observed
[2]; rats
  hepatic enzyme induction: hepatic enzyme induction which was not associated with overt organ toxicity
[2]; [5]
  gastrointestinal effects: gastrointestinal effects
  renal effects: minor renal effects
[3]
  GI tract and kidney tolerability: relatively benign to the GI tract and kidneys
  blood-brain barrier passage: readily crosses the blood-brain barrier
  half-life: relatively long half-life
[4]
  amyloid accumulation over the cells: amyloid accumulation over the cells was reduced
[4]; 20-30 μM in 5% DMSO/water v/v
  cell death induced by amyloid: significantly decrease the cell death induced by the amyloid
